{
  "source": "patent US9447106B2",
  "about": "“Substituted pyrazolo[1,5-a]pyrimidines as bruton's tyrosine kinase modulators” (Beigene, Ltd., priority 2013, dated 2016)",
  "note": "Structures can show the parent of a compound that is named as a salt.",
  "data": [
    {"target": "phosphorylated Btk at Tyr223 in Ramos cells (Homo sapiens (Human), UniProt Q06187)", "sequence (Q06187 whole entry)": "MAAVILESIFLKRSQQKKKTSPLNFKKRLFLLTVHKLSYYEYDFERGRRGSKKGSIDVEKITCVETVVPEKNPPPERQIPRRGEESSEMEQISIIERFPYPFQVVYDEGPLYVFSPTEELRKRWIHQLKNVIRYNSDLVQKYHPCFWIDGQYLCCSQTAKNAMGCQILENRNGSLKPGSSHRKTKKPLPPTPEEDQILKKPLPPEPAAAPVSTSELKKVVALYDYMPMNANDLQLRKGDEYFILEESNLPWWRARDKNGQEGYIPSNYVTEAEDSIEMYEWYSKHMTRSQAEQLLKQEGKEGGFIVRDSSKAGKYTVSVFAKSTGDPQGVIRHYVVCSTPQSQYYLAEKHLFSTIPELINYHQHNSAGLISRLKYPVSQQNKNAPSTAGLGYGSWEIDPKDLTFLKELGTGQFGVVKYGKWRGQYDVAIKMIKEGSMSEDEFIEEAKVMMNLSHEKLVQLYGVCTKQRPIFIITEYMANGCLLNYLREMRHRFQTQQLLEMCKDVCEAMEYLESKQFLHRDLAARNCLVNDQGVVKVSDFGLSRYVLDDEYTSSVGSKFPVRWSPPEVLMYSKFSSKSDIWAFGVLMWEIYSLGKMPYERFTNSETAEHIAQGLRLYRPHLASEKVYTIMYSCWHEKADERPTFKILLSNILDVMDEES", "test": "Btk pY223 cellular assay (HTRF) in Ramos cells", "type": "cell-based", "details": "1 hour compound incubation, pervanadate or Na3VO4 stimulation", "units": {"IC50": "nM"}, "description": "Btk pY223 cellular assay is a HTRF based assay intended to determine the endogenous levels of phosphorylated Btk at Tyr223.\nBriefly, Ramos cells were serum starved in 0.5% FBS-containing RPMI1640 for 2 hours. Following starvation, the cells were incubated with compounds to be detected at various concentrations in a CO2 incubator for 1 hour. After incubation, cells were stimulated with 1 mM pervanadate (PV) or Na3VO4 (OV) for 20 min. Then, the cells were spinned down and lysed with 1× lysis buffer at RT for 10 min (4× lysis buffer supplied in the kit). During the incubation, 1× antibody mix was prepared by diluting anti-Btk-d2 and anti-pBtk-K in detection buffer (supplied in the kit). […] After that, 18 ul of cell lysate was transferred to the assay plate pre-loaded with antibody solution. After mixing gently and spinning briefly, the plate was sealed up and kept in dark at RT for 18 hours. […] IC50 values were calculated with GraphPad Prism software using the sigmoidal dose-response function.", "values": [
      {"molecule": "C=CC(=O)Nc1ccccc1C1CCNc2c(C(N)=O)c(-c3ccc(Oc4ccc(F)cc4)cc3)nn21", "note": "(stereo not drawn) [Compound 12, 7-(2-Acrylamidophenyl)-2-(4-(4-fluorophenoxyl)phenyl)-4,5,6,7-tetrahydropyrazolo[1,5-a]pyrimidine-3-carboxamide]", "IC50": 23.6},
      {"molecule": "C=CC(=O)N(C)CC1CCNc2c(C(N)=O)c(-c3ccc(Oc4ccccc4)cc3)nn21", "note": "(stereo not drawn) [Compound 35]", "IC50": 7.9},
      {"molecule": "C=CC(=O)N1CCC2(CCNc3c(C(N)=O)c(-c4ccc(Oc5ccccc5)cc4)nn32)CC1", "note": "[Compound 43, 1-Acryloyl-2′-(4-phenoxyphenyl)-5′,6′-dihydro-4′H-spiro[piperidine-4,7′-pyrazolo[1,5-a]pyrimidine]-3′-carboxamide]", "IC50": 75.8},
      {"molecule": "C=CC(=O)N1CC2(CNc3c(C(N)=O)c(-c4ccc(Oc5ccccc5)cc4)nn32)C1", "note": "[Compound 46, 1-Acryloyl-6′-(4-phenoxyphenyl)-1′,2′-dihydrospiro[azetidine-3,3′-imidazo[1,2-b]pyrazole]-7′-carboxamide]", "IC50": 22.6},
      {"molecule": "CN(C)CCC(=O)N1CCc2[nH]c3c(C(N)=O)c(-c4ccc(Oc5ccccc5)cc4)nn3c2C1", "note": "[Compound 57, 7-(3-(Dimethylamino)propanoyl)-2-(4-phenoxyphenyl)-5,6,7,8-tetrahydro-4H-pyrazolo[5′,1′:2,3]imidazo[4,5-c]pyridine-3-carboxamide trifluoroacetate]", "IC50": 233},
      {"molecule": "CC=CC(=O)N1CCc2[nH]c3c(C(N)=O)c(-c4ccc(Oc5ccccc5)cc4)nn3c2C1", "note": "[Compound 58, 7-(But-2-enoyl)-2-(4-phenoxyphenyl)-5,6,7,8-tetrahydro-4H-pyrazolo[5′,1′:2,3]imidazo[4,5-c]pyridine-3-carboxamide]", "IC50": 4.6},
      {"molecule": "CN(C)C/C=C/C(=O)N1CCc2c([nH]c3c(C(N)=O)c(-c4ccc(Oc5ccccc5)cc4)nn23)C1", "note": "[Compound 64, (E)-6-(4-(Dimethylamino)but-2-enoyl)-2-(4-phenoxyphenyl)-5,6,7,8-tetrahydro-4H-pyrazolo[1′,5′:1,2]imidazo[4,5-c]pyridine-3-carboxamide trifluoroacetate]", "IC50": 4.8},
      {"molecule": "C=CC(=O)Nc1ccc2c(c1)-n1nc(-c3ccc(Oc4ccccc4)cc3)c(C(N)=O)c1NC2", "note": "[Compound 69, 8-Acrylamido-2-(4-phenoxyphenyl)-4,5-dihydropyrazolo[1,5-a]quinazoline-3-carboxamide]", "IC50": 34.4},
      {"molecule": "C=CC(=O)Nc1ccc2c(c1)CC(=O)Nc1c(C(N)=O)c(-c3ccc(Oc4ccccc4)cc3)nn1-2", "note": "[Compound 75, 8-Acrylamido-5-oxo-2-(4-phenoxyphenyl)-5,6-dihydro-4H-benzo[f]pyrazolo[1,5-a][1,3]diazepine-3-carboxamide]", "IC50": 223},
      {"molecule": "C=CC(=O)Nc1ccc2c(c1)c(=O)[nH]c1c(C(N)=O)c(-c3ccc(Oc4ccccc4)cc3)nn12", "note": "[Compound 78, 7-Acrylamido-5-oxo-2-(4-phenoxyphenyl)-4,5-dihydropyrazolo[1,5-a]quinazoline-3-carboxamide]", "IC50": 140},
      {"molecule": "C=CC(=O)NC1CNc2c(C(N)=O)c(-c3ccc(Oc4ccccc4)cc3)nn2C1", "note": "(stereo not drawn) [Compound 85, 6-Acrylamido-2-(4-phenoxyphenyl)-4,5,6,7-tetrahydropyrazolo[1,5-a]pyrimidine-3-carboxamide]", "IC50": 73.2},
      {"molecule": "C=CC(=O)NCC1CNc2c(C(N)=O)c(-c3ccc(Oc4ccccc4)cc3)nn2C1", "note": "(stereo not drawn) [Compound 86, 6-(Acrylamidomethyl)-2-(4-phenoxyphenyl)-4,5,6,7-tetrahydro pyrazolo[1,5-a]pyrimidine-3-carboxamide]", "IC50": 4.4},
      {"molecule": "CN(C)C/C=C/C(=O)Nc1ccccc1C1CCNc2c(C(N)=O)c(-c3ccc(Oc4ccccc4)cc3)nn21", "note": "(stereo not drawn) [Compound 92, (E)-7-(2-(4-(dimethylamino)but-2-enamido)-phenyl)-2-(4-phenoxyphenyl)-4,5,6,7-tetrahydropyrazolo-[1,5-a]pyrimidine-3-carboxamide]", "IC50": 7},
      {"molecule": "C=CC(=O)N1CCCC1C1CCNc2c(C(N)=O)c(-c3ccc(Oc4ccccc4)cc3)nn21", "note": "(stereo not drawn) [Compound 103, 7-(1-acryloylpyrrolidin-2-yl)-2-(4-phenoxyphenyl)-4,5,6,7-tetrahydropyrazolo-[1,5-a]pyrimidine-3-carboxamide]", "IC50": 14},
      {"molecule": "C=CC(=O)N1CC(C2CCNc3c(C(N)=O)c(-c4ccc(OCc5ccccc5)cc4)nn32)C1", "note": "(stereo not drawn) [Compound 104, 7-(1-acryloylazetidin-3-yl)-2-(4-(benzyloxy)phenyl)-4,5,6,7-tetrahydropyrazolo-[1,5-a]pyrimidine-3-carboxamide]", "IC50": 20.6},
      {"molecule": "C=CC(=O)N1CC(C2CCNc3c(C(N)=O)c(-c4ccc(Oc5ccc(Cl)cc5)cc4)nn32)C1", "note": "(stereo not drawn) [Compound 106, 7-(1-acryloylazetidin-3-yl)-2-(4-(4-chlorophenoxy)-phenyl)-4,5,6,7-tetrahydropyrazolo[1,5-a]pyrimidine-3-carboxamide]", "IC50": 30.3},
      {"molecule": "C=CC(=O)N1CC(C2CCNc3c(C(N)=O)c(-c4ccc(Oc5cccc(Cl)c5)cc4)nn32)C1", "note": "(stereo not drawn) [Compound 107, 7-(1-acryloylazetidin-3-yl)-2-(4-(3-chlorophenoxy)phenyl)-4,5,6,7-tetrahydropyrazolo[1,5-a]pyrimidine-3-carboxamide]", "IC50": 11.2},
      {"molecule": "CN(C)C/C=C/C(=O)N1CCc2[nH]c3c(C(N)=O)c(-c4ccc(Oc5ccccc5)cc4)nn3c2CC1", "note": "[Compound 122, (E)-7-(4-(dimethylamino)but-2-enoyl)-2-(4-phenoxyphenyl)-4,5,6,7,8,9-hexahydropyrazolo-[1′,5′:1,2]-imidazo[4,5-d]azepine-3-carboxamide]", "IC50": 12.6},
      {"molecule": "CN(C)C/C=C/C(=O)N1CCCc2[nH]c3c(C(N)=O)c(-c4ccc(Oc5ccccc5)cc4)nn3c2C1", "note": "[Compound 124, (E)-8-(4-(dimethylamino)but-2-enoyl)-2-(4-phenoxyphenyl)-4,5,6,7,8,9-hexahydropyrazolo-[5′,1′:2,3]-imidazo[4,5-c]azepine-3-carboxamide]", "IC50": 4.6},
      {"molecule": "C=CC(=O)N1CC(C2CCNc3c(C(N)=O)c(-c4ccc(Oc5ccc(Cl)c(Cl)c5)cc4)nn32)C1", "note": "(stereo not drawn) [Compound 132, 7-(1-acryloylazetidin-3-yl)-2-(4-(3,4-dichlorophenoxy)phenyl)-4,5,6,7-tetrahydropyrazolo[1,5-a]pyrimidine-3-carboxamide]", "IC50": 6.2},
      {"molecule": "C=CC(=O)N1CC(C2CCNc3c(C(N)=O)c(-c4ccc(Oc5ccccc5C#N)cc4)nn32)C1", "note": "(stereo not drawn) [Compound 135, 7-(1-acryloylazetidin-3-yl)-2-(4-(2-cyanophenoxy)phenyl)-4,5,6,7-tetrahydropyrazolo[1,5-a]pyrimidine-3-carboxamide]", "IC50": 2.4},
      {"molecule": "C=CC(=O)Nc1ccccc1C1CCNc2c(C(N)=O)c(-c3ccc(F)c(F)c3)nn21", "note": "(stereo not drawn) [Compound 137, 7-(2-acrylamidophenyl)-2-(3,4-difluorophenyl)-4,5,6,7-tetrahydropyrazolo[1,5-a]pyrimidine-3-carboxamide]", "IC50": 22.7},
      {"molecule": "C=CC(=O)N1CCC(C2(C)CCNc3c(C(N)=O)c(-c4ccc(Oc5ccccc5)cc4)nn32)CC1", "note": "(stereo not drawn) [Compound 138, 7-(1-acryloylpiperidin-4-yl)-7-methyl-2-(4-phenoxyphenyl)-4,5,6,7-tetrahydropyrazolo[1,5-a]pyrimidine-3-carboxamide]", "IC50": 7.6},
      {"molecule": "C=CC(=O)N1CC(C2CCNc3c(C(N)=O)c(-c4ccc(Oc5ccccc5)c(Cl)c4)nn32)C1", "note": "(stereo not drawn) [Compound 139, 7-(1-acryloylazetidin-3-yl)-2-(3-chloro-4-phenoxyphenyl)-4,5,6,7-tetrahydropyrazolo[1,5-a]pyrimidine-3-carboxamide]", "IC50": 3.1}
    ]}
  ]
}
